According to patent US9249127B2 (Orion Corporation, priority 2012, dated 2016):
Where a name gives a salt, the structure may show the parent alone. Read-outs that look alike come from different tables or passages of the source.

Molecular target: T1, alpha2A receptor (Homo sapiens, UniProt P08913)
T1 sequence (P08913 1-465): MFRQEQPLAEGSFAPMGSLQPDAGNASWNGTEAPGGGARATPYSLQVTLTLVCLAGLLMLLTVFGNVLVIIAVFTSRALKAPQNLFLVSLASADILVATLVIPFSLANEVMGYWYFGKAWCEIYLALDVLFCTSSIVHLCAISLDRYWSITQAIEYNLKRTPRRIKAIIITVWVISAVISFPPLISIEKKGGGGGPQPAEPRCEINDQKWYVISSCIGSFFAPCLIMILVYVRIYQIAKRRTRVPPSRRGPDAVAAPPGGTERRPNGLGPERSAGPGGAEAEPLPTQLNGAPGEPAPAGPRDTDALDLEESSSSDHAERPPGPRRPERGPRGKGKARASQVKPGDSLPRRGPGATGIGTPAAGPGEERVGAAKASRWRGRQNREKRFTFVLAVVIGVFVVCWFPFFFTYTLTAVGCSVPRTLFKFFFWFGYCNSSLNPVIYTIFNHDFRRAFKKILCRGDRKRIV
Assay: Alpha2A agonistic activity in vitro
Type: cell-based

[1] = in vitro, read-out: Alpha2A Agonism pEC50 (converted)
[2] = Alpha2A Agonism pEC50, in vitro

Row | Molecule | Alpha2A Agonism pEC50 (in vitro) | Alpha2A Intrinsic Activity (in vitro) | EC50 [1] [nM] | EC50 [2] [nM] | Alpha2A Intrinsic Activity (in vitro, hydrochloride)
1 | 2-(5-methoxy-3-(2,2,2-trifluoroethyl)methyl-isochroman-1-yl)-4,5-dihydro-1H-imidazole [Example 77] | 6.3 | 0.16 | – | – | –
2 | CC1(C2=NCCN2)OCCc2c(C(O)C(C)(C)C)cccc21 (single isomer, unassigned) [Example 13, 1-(1-(4,5-Dihydro-1H-imidazol-2-yl)-1-methylisochroman-5-yl)-2,2-dimethylpropan-1-ol] | – | 0.66 | 1260 | – | –
3 | CC1(C2=NCCN2)OCCc2c(C(O)C(C)(C)C)cccc21 (single isomer, unassigned) [Example 14, 1-(1-(4,5-Dihydro-1H-imidazol-2-yl)-1-methylisochroman-5-yl)-2,2-dimethylpropan-1-ol] | – | 0.43 | 3160 | – | –
4 | Cc1cccc2c1CCOC2(C)C1=NCCN1 (single isomer, unassigned) [Example 21, 2-(1,5-Dimethylisochroman-1-yl)-4,5-dihydro-1H-imidazole] | – | 0.73 | – | 50.1 | –
5 | Cc1cccc2c1CCOC2(C)C1=NCCN1 (single isomer, unassigned) [Example 22, 2-(1,5-Dimethylisochroman-1-yl)-4,5-dihydro-1H-imidazole] | – | 0.33 | 1000 | – | –
6 | FC(F)(F)CC1Cc2c(Br)cccc2C(C2=NCCN2)O1 (single isomer, unassigned) [Example 68] | – | 0.25 | – | – | –
7 | CCc1cccc2c1CCOC2C1=NCCN1 (single isomer, unassigned) [Example 80] | – | 0.58 | 251 | – | –
8 | COc1cccc2c1CCOC2C1=NCCN1 (single isomer, unassigned) [Example 82, 2-(5-methoxyisochroman-1-yl)-4,5-dihydro-1H-imidazole] | – | 0.52 | 158 | – | –
9 | FC(F)(F)CC1Cc2c(Br)cccc2C(C2=NCCN2)O1 (single isomer, unassigned) [Example 83] | – | 0.41 | 126 | – | –
10 | Cc1cccc2c1CC(CC(F)(F)F)OC2C1=NCCN1 (single isomer, unassigned) [Example 86, 2-((3)-5-methyl-3-(2,2,2-trifluoroethyl)isochroman-1-yl)-4,5-dihydro-1H-imidazole] | – | 0.28 | 100 | – | –
11 | CCCC1Cc2c(Br)cccc2C(C2=NCCN2)O1 (single isomer, unassigned) [Example 88, 2-((3)-5-bromo-3-propylisochroman-1-yl)-4,5-dihydro-1H-imidazole] | – | 0.50 | – | 50.1 | –
12 | Cc1cccc2c1CC(CC(F)F)OC2C1=NCCN1 (single isomer, unassigned) [Example 89, 2-((3-(2,2-difluoroethyl)-5-methylisochroman-1-yl)-4,5-dihydro-1H-imidazole hydrochloride] | – | – | – | 39.8 | 0.33
13 | Clc1cccc2c1CCOC2C1=NCCN1 (single isomer, unassigned) [Example 92, 2-(5-chloroisochroman-1-yl)-4,5-dihydro-1H-imidazole] | – | 0.78 | – | 31.6 | –
14 | CCC1Cc2c(Br)cccc2C(C2=NCCN2)O1 (single isomer, unassigned) [Example 94, 2-(5-bromo-3-ethylisochroman-1-yl)-4,5-dihydro-1H-imidazole] | – | 0.55 | – | 25.1 | –
15 | CCc1cccc2c1CCOC2C1=NCCN1 (single isomer, unassigned) [Example 96] | – | 0.66 | – | 20 | –
16 | COc1cccc2c1CCOC2C1=NCCN1 (single isomer, unassigned) [Example 97, 2-(5-methoxyoisochroman-1-yl)-4,5-dihydro-1H-Imidazole] | – | 0.69 | 15.8 | – | –
17 | Clc1cccc2c1CCOC2C1=NCCN1 (single isomer, unassigned) [Example 100, 2-(5-chloroisochroman-1-yl)-4,5-dihydro-1H-imidazole] | – | 0.91 | – | 3.98 | –
18 | Brc1cccc2c1CCOC2C1=NCCN1 (single isomer, unassigned) [Example 101, 2-(5-bromoisochroman-1-yl)-4,5-dihydro-1H-imidazole] | – | 0.89 | – | 3.16 | –
19 | CC1(C2=NCCN2)OCc2cccc3cccc1c23 (single isomer, unassigned) [Example 103, 2-(1-methyl-1,3-dihydrobenzo[de]isochromen-1-yl)-4,5-dihydro-1H-imidazole] | – | 0.74 | – | 6.31 | –
20 | CC1(C2=NCCN2)OCCc2c(Br)cccc21 (single isomer, unassigned) [Example 106, 2-(5-bromo-1-methylisochroman-1-yl)-4,5-dihydro-1H-imidazole] | – | 0.64 | 158 | – | –
21 | Cc1cccc2c1CCOC2C1=NCCN1 (centres unmarked) [Example 1, 2-(5-Methylisochroman-1-yl)-4,5-dihydro-1H-imidazole] | – | 0.89 | – | 3.98 | –

Row | Molecule | Alpha2A Agonism pEC50 (in vitro) | Alpha2A Intrinsic Activity (in vitro) | EC50 [1] [nM] | EC50 [2] [nM] | Alpha2A Intrinsic Activity (in vitro, hydrochloride)
22 | Brc1cccc2c1CCOC2C1=NCCN1 (centres unmarked) [Example 2, 2-(5-Bromoisochroman-1-yl)-4,5-dihydro-1H-imidazole] | – | 0.85 | – | 15.8 | –
23 | Cc1cccc2c1CCOC2(C)C1=NCCN1 (centres unmarked) [Example 3, 2-(1,5-Dimethylisochroman-1-yl)-4,5-dihydro-1H-imidazole] | – | 0.95 | – | 63.1 | –
24 | Clc1cccc2c1CCOC2C1=NCCN1 (centres unmarked) [Example 4, 2-(5-Chloroisochroman-1-yl)-4,5-dihydro-1H-imidazole] | – | 0.85 | – | 7.94 | –
25 | N#Cc1cccc2c1CCOC2C1=NCCN1 (centres unmarked) [Example 5, 1-(4,5-Dihydro-1H-imidazol-2-yl)isochroman-5-carbonitrile] | – | 0.59 | 1260 | – | –
26 | C=CCc1cccc2c1CCOC2C1=NCCN1 (centres unmarked) [Example 6, 2-(5-Allylisochroman-1-yl)-4,5-dihydro-1H-imidazole] | – | 0.53 | – | 39.8 | –
27 | C=Cc1cccc2c1CCOC2C1=NCCN1 (centres unmarked) [Example 7, 2-(5-Vinylisochroman-1-yl)-4,5-dihydro-1H-imidazole] | – | 0.81 | – | 39.8 | –
28 | CCc1cccc2c1CCOC2C1=NCCN1 (centres unmarked) [Example 8] | – | 0.77 | – | 39.8 | –
29 | Oc1cccc2c1CCOC2C1=NCCN1 (centres unmarked) [Example 9, 1-(4,5-Dihydro-1H-imidazol-2-yl)isochroman-5-ol] | – | 0.73 | 200 | – | –
30 | OCc1cccc2c1CCOC2C1=NCCN1 (centres unmarked) [Example 10, (1-(4,5-Dihydro-1H-imidazol-2-yl)isochroman-5-yl)methanol] | – | 0.90 | – | 20 | –
31 | CC1(C2=NCCN2)OCCc2c(Br)cccc21 (centres unmarked) [Example 11, 2-(5-Bromo-1-methylisochroman-1-yl)-4,5-dihydro-1H-imidazole] | – | 0.83 | – | 100 | –
32 | CC[C@@H]1Cc2c(Cl)cccc2C(C2=NCCN2)O1 (stereo partly drawn) [Example 12, 2-((3R)-5-chloro-3-ethylisochroman-1-yl)-4,5-dihydro-1H-imidazole] | – | 0.94 | 1580 | – | –
33 | C#Cc1cccc2c1CCOC2C1=NCCN1 (centres unmarked) [Example 15, 2-(5-Ethynylisochroman-1-yl)-4,5-dihydro-1H-imidazole] | – | 0.88 | – | 15.8 | –
34 | CC[C@@H]1Cc2c(cccc2C(F)(F)F)C(C2=NCCN2)O1 (stereo partly drawn) [Example 16, 2-((3R)-3-ethyl-5-(trifluoromethyl)isochroman-1-yl)-4,5-dihydro-1H-imidazole] | – | 0.51 | 50.1 | – | –
35 | COc1cccc2c1CCOC2C1=NCCN1 (centres unmarked) [Example 17, 2-(5-Methoxyisochroman-1-yl)-4,5-dihydro-1H-imidazole] | – | 0.81 | 25.1 | – | –
36 | Ic1cccc2c1CCOC2C1=NCCN1 (centres unmarked) [Example 18, 2-(5-Iodoisochroman-1-yl)-4,5-dihydro-1H-imidazole] | – | 0.81 | – | 2 | –
37 | C[C@@H]1Cc2c(cccc2C(F)(F)F)C(C2=NCCN2)O1 (stereo partly drawn) [Example 19, 2-((3R)-3-methyl-5-(trifluoromethyl)isochroman-1-yl)-4,5-dihydro-1H-imidazole] | – | 0.81 | – | 5.01 | –
38 | CC1COC(C2=NCCN2)c2cccc(Br)c21 (centres unmarked) [Example 20, 2-(5-Bromo-4-methylisochroman-1-yl)-4,5-dihydro-1H-imidazole] | – | 0.87 | – | 63.1 | –
39 | Cc1cccc2c1C[C@@H](C)OC2(C)C1=NCCN1 (stereo partly drawn) [Example 23, 2-((3R)-1,3,5-trimethylisochroman-1-yl)-4,5-dihydro-1H-imidazole] | – | 0.68 | 316 | – | –
40 | CC1(C2=NCCN2)OCCc2c(C3CC3)cccc21 (centres unmarked) [Example 24] | – | 0.20 | 794 | – | –
41 | Cc1cccc2c1CC(C)OC2C1=NCCN1 (centres unmarked) [Example 25, 2-(3,5-Dimethylisochroman-1-yl)-4,5-dihydro-1H-imidazole] | – | 0.82 | – | 3.16 | –
42 | CC1Cc2c(Cl)cccc2C(C2=NCCN2)O1 (centres unmarked) [Example 26, 2-(5-Chloro-3-methylisochroman-1-yl)-4,5-dihydro-1H-imidazole] | – | 0.82 | – | 3.98 | –
